“Also recorded” adds a separate entry of the source.
How the values were obtained:
[1] = system: hiPS cells derived sensory neurons (TRPV1 activity / substance P release); assay: Substance P release (ELISA) from hiPSC-derived sensory neurons after treatment with TRPV1 agonists and antagonists; type: cell-based, human
Method: Substance P release measured in the supernatant of sensory neurons culture after incubating 1 h at 37° C. in the presence of ligands. CAP: capsaicin; CPZ: capsazepine; RR: ruthenium red; AEA: anandamide (10 μM); KCl: high potassium solution (70 mM).
Substance P (SP) levels were determined using a commercially available ELISA kit (Cayman), following the manufacturer's instructions. Sensory neurons were cultured in a culture vessel in 24-well culture vessels at high confluence. After 24 h, cells were rinsed with fluorimetry buffer and incubated with different concentrations of agonists of TRPV1 for 45 minutes in the same buffer. When an antagonist was used, it was applied 15 minutes before, then the solution was changed to agonist plus antagonist. Subsequently, the supernatants were collected and immediately used with the ELISA kit. All experiments were performed in triplicate and absorbance levels were measured in a microculture vessel reader.
PSNs respond to irritants, such as capsaicin, via release of neuropeptides at the epidermal end and glutamate and neuropeptides in the dorsal horn of the medulla (Basbaum et al., Cellular and molecular mechanisms of pain. Cell. 2009; 139:267-284). To verify if the sensory neurons were functional with respect to neuropeptide release, after D33 they were plated onto 24-well plates and treated 10 days with HEKn conditioned medium.

[2] = system: TRPV1; conditions: Zygmunt et al. 1999; cited from earlier work
[3] = system: human skin fibroblasts; conditions: Kim et al. 2006; cited from earlier work
[4] = system: cultured human epidermal keratinocytes; conditions: Inoue et al. 2002; cited from earlier work
[5] = system: TRPV1 in hiPS cells derived sensory neurons; assay: Calcium release assay (Fura-2 imaging) in hiPS cells derived sensory neurons; type: cell-based, human; conditions: Fura-2 340/380 nm, capsaicin 100 nM in FIG. 5
Method: Phase contrast image for cell localization (a) fluorescence image of basal calcium levels (b). Calcium responses in sensory neurons after 100 nM capsaicin (c) and 70 mM KCL treatment (d). Calcium imaging of sensory neurons with conversion of Fura-2 excitation ratio (340/380 nm) to pseudo color, according to the scale on the left of each image. Arrows indicate active cells.
Neurons were cultured in a culture vessel onto PLO and Laminin-treated coverslips (where they were treated with HEKn conditioned medium for 10 days. On the day of the experiment, the medium was removed and cells were incubated with fresh medium (without factors) containing 5 μM Fura-2 AM (Molecular Probes) and 0.04% pluronic acid for one hour at 37° C. Then this solution was replaced with fluorimetry buffer, composed of (in mM): 145 NaCl, 5 KCl, 1.2 NaHPO4, 1.5 CaCl2, 10 D-glucose, 5 HEPES pH 7.4. If an antagonist was used, it was added to this solution at this time. After 30 minutes at 37° C., the coverslips were taken to an inverted microscope (Nikon) equipped with a CCD Camera (Orca, Hamamatsu Photonics) and Lambda DG-4 light source (Sutter Instrument). The images were acquired every 500 milliseconds via MetaFluor software (Molecular Probes) and the levels of fluorescence were represented in pseudo-color. […]

In the case of CCCCC/C=C\C/C=C\C/C=C\C/C=C\CCCC(=O)NCCO [anandamide], the “Substance P release” value ([1]; anandamide 10 μM) is given as “evoked the highest substance P release; also recorded: caused a release of substance P”, the “Substance P release, increase compared to control” value ([1]; anandamide 10 μM, supernatant of sensory neurons culture after 1 h at 37° C.) is given as 887% and the “EC50 at TRPV1 compared with CB1” value [2] is given as “an order of magnitude higher”.
In the case of COc1cc(CNC(=O)CCCC/C=C/C(C)C)ccc1O [capsaicin], the “Substance P release relative to basal level” value ([1]; capsaicin 300 nM, neurons treated 10 days with HEKn conditioned medium) is listed as “triple that amount”, the “Substance P release” value ([1]; capsaicin 3 μM) is listed as “did not show increased release” and the “Membrane current and intracellular calcium level” value [3] is listed as “induced significant changes in the membrane current and the intracellular calcium level”. The Intracellular calcium concentration [4] was “produced elevations in the intracellular calcium concentration”, the “Calcium increases mediated by TRPV1 activation (calcium signals)” value [5] was “modest” and the “Calcium increases mediated by TRPV1 activation (calcium signals)” value ([5]; listed as Capsaicin) was “activity could be detected”.
For Oc1cc2c(cc1O)CN(C(=S)NCCc1ccc(Cl)cc1)CCC2 [capsazepine], the “Block of capsaicin-induced substance P release” value ([1]; co-treatment with capsazepine 1 μM, capsaicin 300 nM) is given as “efficiently blocked”, the “Antagonism of capsaicin-induced changes” value [3] is given as “antagonized” and the “Inhibition of capsaicin-/acidification-induced calcium increases” value [4] is given as “inhibited”.
With [Cl-].[K+] [high potassium solution] the “Substance P release” value ([1]; high potassium solution 70 mM) was “substance P release equivalent to capsaicin 300 r1M”.
In the case of N.N.N.N.N.N.N.N.N.N.N.N.N.N.[Cl-].[Cl-].[Cl-].[Cl-].[Cl-].[Cl-].[O-2].[O-2].[Ru+3].[Ru+3].[Ru+4] [ruthenium red], the “Substance P release relative to basal levels” value ([1]; pre-incubation with ruthenium red 10 μM followed by capsaicin 3 μM) is reported as “seemed to decrease substance P release below basal levels”.

Source: patent US11987808B2, “Method of human periferic sensory neurons differenciation from human stem cells and uses thereof” (L'OREAL, priority 2017, dated 2024)
